In patent publication US20090088461A1, “Methods of Treating or Preventing Cardiac Disease Associated With a High Fat Diet” (Synvista Therapeutics, Inc., priority 2007, published 2009):

How the values were obtained:
Format in all cases: in vivo
[1] = system: superoxide production in left ventricular homogenates (gp91^phox, RAC-1, heme oxygenase); experiment: Assessment of superoxide production in HF-fed mice
Source text: Adult (8-week-old) male […] mice (Precinct Animal Centre, Melbourne, Australia) and RAGE knockout (KO) mice^17 ([…] al., J Clin Invest. 113:1641-50, 2004) were housed in a temperature-controlled room on a 12-h light-dark cycle. Mice were placed on either a standard diet (AIN-93G; Specialty feeds, Perth AUS; n=10/group) or a high fat (HF) diet formulated to mimic a “Western fast food diet”, (SF05-031, Specialty Feeds; n=10). Both diets contained the same vitamin and calorie content. […] Animals receiving a HF diet were further randomized to receive alagebrium chloride at a dose of 1 mg/kg/day delivered by oral gavage. All groups were followed for 16 weeks. The production and accumulation of superoxide and other ROS is a key mediator of […] injury and cellular dysfunction associated with high fat feeding^5 (Boudina and Abel, Circulation 115:3213-23, 2007). […] Following incubation for 60 min at 37° C., before the rate of superoxide anion formation was determined by the addition of 3.8 μM lucigenin (bis-N-methylacridinium nitrate). […] The expression of the NADPH subunits, NOX-2 (gp91^phox), p47^phox, NOX-4 and RAC-1 in left ventricular homogenates, along with the expression of heme oxygenase (HO) and glutathione peroxidase (GPX), key defence mechanism against oxidative stress, were further assessed by real-time quantitative RT-PCR, as detailed above.

[2] = system: AGEs (CML), S100 A8/A9, RAGE, AGE-R1, AGE-R3; experiment: Accumulation of RAGE ligands and AGE receptor expression in HF-fed mice; details: for Gene expression RAGE: Wild-type mice, HF diet, real time RT-PCR, control = 1
Source text: Adult (8-week-old) male […] mice (Precinct Animal Centre, Melbourne, Australia) and RAGE knockout (KO) mice^17 ([…] al., J Clin Invest. 113:1641-50, 2004) were housed in a temperature-controlled room on a 12-h light-dark cycle. Mice were placed on either a standard diet (AIN-93G; Specialty feeds, Perth AUS; n=10/group) or a high fat (HF) diet formulated to mimic a “Western fast food diet”, (SF05-031, Specialty Feeds; n=10). Both diets contained the same vitamin and calorie content. […] Animals receiving a HF diet were further randomized to receive alagebrium chloride at a dose of 1 mg/kg/day delivered by oral gavage. All groups were followed for 16 weeks. […] Cardiovasc Diabetol. 5:6, 2006) was also assessed by commercial ELISA.

[3] = system: myocardial fibrosis (collagen I, collagen IV); experiment: Assessment of myocardial fibrosis in HF-fed mice; details: for collagen deposition / collagen accumulation associated with high fat feeding: HF-fed mice, histology (FIG. 1); for Gene expression Collagen I / Gene expression Collagen IV: HF diet, real time RT-PCR
Source text: Adult (8-week-old) male […] mice (Precinct Animal Centre, Melbourne, Australia) and RAGE knockout (KO) mice^17 ([…] al., J Clin Invest. 113:1641-50, 2004) were housed in a temperature-controlled room on a 12-h light-dark cycle. Mice were placed on either a standard diet (AIN-93G; Specialty feeds, Perth AUS; n=10/group) or a high fat (HF) diet formulated to mimic a “Western fast food diet”, (SF05-031, Specialty Feeds; n=10). Both diets contained the same vitamin and calorie content. […] Animals receiving a HF diet were further randomized to receive alagebrium chloride at a dose of 1 mg/kg/day delivered by oral gavage. All groups were followed for 16 weeks. Previous studies have shown that obesity is associated with an increase in intramyocardial fibrosis. Gene expression of markers of fibrosis, including collagens and fibronectin were assessed by real-time quantitative RT-PCR, as detailed above. Perivascular collagen deposition was assessed by Van Giesen's Stain and interstitial fibrosis was assessed by staining with Picrosirus red staining of organized collagen. […] Paraffin-fixed cardiac sections were also stained for collagen IV by immunohistochemistry, as previously described^12 (Candido et al., Circ Res. 92:785-92, 2003).

## Cc1sc[n+](CC(=O)c2ccccc2)c1C.[Cl-] [alagebrium chloride, 3-(2-phenyl-2-oxoethyl)-4,5-dimethylthiazolium chloride]
[1]; RAGE KO mice, HF diet, real time RT-PCR, listed as AL
  Gene expression relative to 18S (AU/18s): 0.1 ± 0.1 AU/18s
[1]; both wild type and RAGE KO mice, HF diet (FIG. 4)
  NADH-dependent (mitochondrial) superoxide production in cardiac homogenates: significantly reduced
[2]; HF-fed mice, ELISA (FIG. 3)
  increase in S100 A8/A9 following HF feeding: attenuated
[2]
  Gene expression RAGE: prevented
[2]; listed as AL
  Gene expression RAGE: 1.0 ± 0.2 AU/18s
[2]; both wild type and RAGE KO mice, HF diet (FIG. 3)
  AGE accumulation (ELISA for CML-modified protein): markedly reduced
[3]
  collagen deposition / collagen accumulation associated with high fat feeding: unaffected
[3]; listed as alegebrium chloride
  collagen deposition / collagen accumulation associated with high fat feeding: reduced
[3]; RAGE KO mice
  Gene expression Collagen I: 0.8 ± 0.1 AU/18s
  Gene expression Collagen IV: 0.9 ± 0.1 AU/18s
[3]; Wild-type mice
  Gene expression Collagen I: 1.6 ± 0.1 AU/18s
  Gene expression Collagen IV: 1.3 ± 0.1 AU/18s
